Data set [1] deals with GLUT2. Nature of the data set: Zebrafish in vivo imaging of glucose uptake. The settings on record: 28 hpf, 50 pmol into yolk sac. On the procedure:
(§1) A-F) Green (GLUT4-EGFP), red (SCOTfluor-89, 100 μM) and merged (Hoechst 33342) images of HeLa cells without additional glucose (A-C) and in media containing 5 mM D-glucose ([…]). White arrows identify co-localization of GLUT4-EGFP and SCOTfluor-89. Scale bar: 10 μm. G) Fluorescence emission spectra of BFP (blue), GFP (green) and SCOTfluor-89 (red). H) Insulin-dependent (100 nM, 1 h) uptake of SCOTfluor-89 (red, 100 μM) in GLUT4-EGFP HeLa cells. I) Chemical structures of compounds SCOTfluor-54 and SCOTfluor-89. J) In vivo images of the head in zebrafish embryos (28 hpf) after injection of SCOTfluor-54 or SCOTfluor-89 (both 50 pmol) to the yolk sac (blue arrowheads). Fluorescence images were taken of wildtype zebrafish or zebrafish that had been injected at one cell stage with 4.2 ng anti-sense glut2 morpholino. Yellow arrows point at midbrain and hindbrain regions within the zebrafish embryo heads. Scale bar: 100 μm.
Anti-sense glut2 morpholino (5′-ATGACCTGCAGAC AACAAGGACACC-3′)^1 was reconstituted to 1 mM in nuclease-free H2O and injected at 4.2 ng/embryo into the one-cell stage. Embryos were maintained at 28.5° C., according to standard protocols. Wild-type controls and glut2 morphants were injected into the yolk sac at 28 hours post fertilization (hpf) with compound SCOTfluor-89 (50 pmol) and 1 mg mL^−1 10,000 MW Dextran Cascade Blue® (ThermoFisher), then embedded in 1% low-melting point agarose for live imaging. Live imaging was performed 30 min post-injection on an inverted Leica SP8 confocal microscope using a HC PL APO CS2 10×/0.40 dry lens. Dextran was excited at 405 nm laser and detected at 415-480 nm, while compound SCOTfluor-89 was excited at 488 nm and detected at 498-600 nm.
It was also examined whether SCOTfluors could be used to image in vivo tissues with high metabolic activity. Fluorescent deoxyglucose tracers can monitor glucose uptake in metabo-lically-active cells and tissues, although few have been reported for in vivo use. Herein synthesized compound SCOTfluor-89 was synthetized as an in vivo-compatible glucose analog by nucleophilic substitution of nitrobenzoselenadiazole with 2-deoxyglucosamine. […] The transport of SCOTfluor-89 in HeLa cells transfected with EGFP-tagged GLUT4, the main glucose transporter in mammalian cells was examined. […] Finally, compound SCOTfluor-89 was tested in vivo in zebrafish embryos to visualize regions of high glucose uptake. […] We confirmed that the staining was dependent on the active transport of SCOTfluor-89 through GLUT2 by examining glut2 morpholino-injected zebrafish, which have reduced levels of GLUT2.

Data set [2] can be described thus: Optical properties of SCOTfluors (absorbance, emission, extinction coefficient, quantum yield, solvatochromism). In kind it is physicochemical. As to the method:
All compounds were dissolved in different organic solvents, including toluene, chloroform, tetrahydrofuran, ethanol, DMSO and water (final concentrations: 10-50 μM). Fluorescence spectra were acquired on a spectrophotometer upon excitation at their maxima absorbance wavelengths.
The optical properties of SCOTfluor-80, 79, 78, 76 and 81 were compared with the properties of the original NBD.

Data set [3] deals with HeLa cells. Put plainly: Cytotoxicity assay in HeLa cells. The settings on record: 100 μM and 75 μM (1% DMSO), 4 h at 37° C.
Procedure: Cell viabilities were normalized to incubation in cell culture media under the same experimental conditions. A solution of 40% DMSO in cell culture media was used as a known cytotoxic positive control. Values represented as means±s.e.m. (n=3).
The target of data set [4] is T1, GLUT4 (Homo sapiens, UniProt P14672).
T1 construct: PYP (photoactive yellow protein tag); HA; expressed in transfected cells; host or cells: HeLa
T1 sequence (P14672 1-509): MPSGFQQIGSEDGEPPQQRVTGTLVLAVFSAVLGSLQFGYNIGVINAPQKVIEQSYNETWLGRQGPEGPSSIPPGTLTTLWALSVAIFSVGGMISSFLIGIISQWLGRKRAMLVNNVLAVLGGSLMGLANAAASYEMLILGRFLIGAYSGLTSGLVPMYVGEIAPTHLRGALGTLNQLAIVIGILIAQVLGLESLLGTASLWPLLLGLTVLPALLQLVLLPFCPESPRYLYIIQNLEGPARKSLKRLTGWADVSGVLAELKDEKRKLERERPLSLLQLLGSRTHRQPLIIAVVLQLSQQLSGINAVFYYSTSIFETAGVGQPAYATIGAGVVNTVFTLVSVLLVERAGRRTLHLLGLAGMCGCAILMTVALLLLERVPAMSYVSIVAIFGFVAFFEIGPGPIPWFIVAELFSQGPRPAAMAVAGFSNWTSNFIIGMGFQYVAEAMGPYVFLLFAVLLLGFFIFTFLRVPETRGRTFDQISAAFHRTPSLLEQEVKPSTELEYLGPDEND
Put plainly: Uptake in GLUT4-EGFP transfected HeLa cells (fluorescence microscopy). The note with it: 100 μM. In kind it is cell-based. As to the method: as §1
(§2) A549 and HeLa cells were obtained from LGC Standards and cultured in Dulbecco's modified Eagle's medium (DMEM) supplemented with 10% FBS, 100 U mL^−1 penicillin and 0.1 mg mL^−1 streptomycin. For transfection experiments, HeLa cells were transfected with pcDNA-PYP-GLUT4-HA-EGFP. Amplification of plasmid-DNA was performed by transformation of competent E. coli DH5a, followed by isolation of pcDNA-PYP-GLUT4-HA-EGFP using GeneJet Plasmid Miniprep kit (ThermoFisher) according to the manufacturer's instructions. Prior to transfection, pcDNA concentration was determined using NanoDrop. Transfection of HeLa cells was performed according to manufacturer's protocol with 1 μg pcDNA-PYP-GLUT4-HA-EGFP using Lipofectamine 3000. Non-transfected as well as transfected cells were maintained at 37° C. and 5% CO2 throughout the imaging experiments.
Confocal fluorescence microscopy was performed on a confocal Leica SP5 or a spinning disk microscope with excitation at 488 nm (ER Tracker, LysoTracker, EGFP & SCOTfluor-89), 561 nm (SCOTfluor-101) and 405 nm (Hoechst 33342). […]

Data set [5] in a line: Emission of SCOTfluor-101 in PBS/water and in liposomes. It is filed as physicochemical.
For data set [6], the system named is A549 cells. Nature of the data set: Time-lapse confocal microscopy co-localization with ER and lysosome markers. The note with it: 50 μM. In kind it is cell-based, human. On the procedure: C) Time-lapse confocal microscopy images of A549 cells treated with SCOTfluor-101 (50 μM, red), LysoTracker Blue (magenta) and ER Tracker Green (green) after 15 min (co-localization: white arrows) and 3 h (co-localization: yellow arrows). Total co-localization coefficients (R) were determined using ImageJ. Scale bar: 15 μm.
as §2
Confocal fluorescence microscopy was performed on a confocal Leica SP5 or a spinning disk microscope with excitation at 488 nm (ER Tracker, LysoTracker, EGFP & SCOTfluor-89), 561 nm (SCOTfluor-101) and 405 nm (Hoechst 33342). Prior to time-lapse imaging and imaging of HeLa cells, cells were incubated in Krebs-Ringer bicarbonate buffer (KRB) (129 mM NaCl, 4.7 mM KCl, 1.2 mM KH2PO4, 5 mM NaHCO3, 10 mM HEPES; 2.5 mM CaCl2, 1.2 mM MgCl2 and 0.2% BSA, pH 7.4) at 37° C. for 3 h. When appropriate, HeLa cells were washed and imaged in KRB with 1 μM Hoechst 33342 at 37° C., 5% CO2.
Then, the properties of SCOTfluors for imaging the trafficking of essential metabolites under physiological conditions. […] This property was exploited to visualize the recycling of ceramide SCOTfluor-101 in real time in human A549 cells using fluorescence confocal microscopy. […]

Setting [7] is: glut2 morpholino-injected zebrafish embryos.

Take `CCN(CC)c1ccc([N+](=O)[O-])c2n[se]nc12` [SCOTfluor-54]: the “in vivo fluorescence staining” value in data set [1] (setting [7]) and in data set [1] (wildtype zebrafish embryos) was “no tissue-specific staining” each time.

Regarding `CCCNc1ccc([N+](=O)[O-])c2n[se]nc12` [SCOTfluor-76], in data set [2], the Φ was 0.20, the ε is reported as 16,300 M^−1cm^−1, the λabs. was 510 nm and the λem. was determined as 606 nm. The “cytotoxicity (cell viability)” value in data set [3] was “no significant cytotoxicity”.

Regarding `CCCNc1ccc([N+](=O)[O-])c2nsnc12` [SCOTfluor-78], in data set [2], the Φ turned out to be 0.54, the ε was 14,600 M^−1cm^−1, the λabs. was determined as 476 nm and the λem. was found to be 548 nm.

Consider `CCCNc1ccc([N+](=O)[O-])c2n[nH]nc12` [SCOTfluor-79], for which, in data set [2], the Φ was <0.01, the ε was 37,300 M^−1cm^−1, the λabs. stood at 420 nm and the λem. amounted to 460 nm.

On to `CCCNc1ccc([N+](=O)[O-])c2c1=NC(C)(C)N=2` [SCOTfluor-80], for which, in data set [2], the Φ is reported as 0.09, the ε was 27,300 M^−1cm^−1, the λabs. amounted to 564 nm and the λem. is 650 nm.

As for `CCCNc1ccc([N+](=O)[O-])c2c1=NC1(CCCCC1)N=2` [SCOTfluor-81], in data set [2], the Φ is given as 0.11, the ε was 28,300 M^−1cm^−1, the λabs. was 546 nm and the λem. came to 650 nm. In data set [3], the “cytotoxicity (cell viability)” value is listed as “no significant cytotoxicity”.

Take `O=[N+]([O-])c1ccc(N[C@H]2C(O)O[C@H](CO)[C@@H](O)[C@@H]2O)c2n[se]nc12` (stereo partly drawn) [SCOTfluor-89, (3R,4R,5S,6R)-6-(hydroxymethyl)-3-((7-nitrobenzo[c][1,2,5]selenadiazol-4-yl)amino)tetrahydro-2H-pyran-2,4,5-triol]: the Stokes shift in data set [2] is 115 nm. Moreover, in data set [2], the emission entry was “around 605 nm”. The “transport by GLUT4” value in data set [4] is “functional substrate of GLUT4”. Moreover, the “uptake under competition with excess glucose” value in data set [4] (5 mM D-glucose) is on record as “blocked”. Besides, the “uptake after pre-treating with insulin” value in data set [4] (insulin 100 nM, 1 h) was “increased”. Besides, the “in vivo fluorescence staining” value was “much weaker fluorescence” in data set [1] (setting [7]) and “bright red fluorescence staining in regions of the developing brain” in data set [1] (wildtype zebrafish embryos). The “cytotoxicity (cell viability)” value in data set [3] was “no significant cytotoxicity”.

`CCCCCCCCCCCCC/C=C/[C@@H](O)[C@H](CO)NC(=O)CCCCCNc1ccc([N+](=O)[O-])c2c1=NC(C)(C)N=2` [SCOTfluor-101, N-((2S,3R,E)-1,3-dihydroxyoctadec-4-en-2-yl)-6-((2,2-dimethyl-7-nitro-2H-benzo[d]imidazol-4-yl)amino)hexanamide]: the emission in data set [2] is given as > 660 nm. The “increase in emission on incubation with liposomes” value in data set [5] (phosphatidylcholine:cholesterol (7:1) liposomes vs PBS) is reported as “over 15 fold”. The aggregation in water entry in data set [5] (water) is given as “minimal aggregation”. Also, in data set [6] (15 min), the “co-localization (R) with ER Tracker Green” value was 91% and the “co-localization (R) with LysoTracker Blue” value was determined as 26%. Besides, in data set [6] (after 3 h), the “co-localization (R) with LysoTracker Blue” value is 75%. In data set [3], the “cytotoxicity (cell viability)” value is recorded as “no significant cytotoxicity”.

Take “Nitrobenzodioxazole [NBD, reference compound]”: in data set [2], the Φ turned out to be 0.55, the ε is on record as 15,400 M^−1cm^−1, the λabs. turned out to be 486 nm and the λem. is 542 nm.

Values taken from patent publication US12415926B2, “Small tunable fluorophores for the detection and imaging of biomolecules” (The University Court of the University of Edinburgh, priority 2019, dated 2025).
